Test results reported in US11479551B2, “MTA-cooperative PRMT5 inhibitors” (Mirati Therapeutics, Inc., priority 2019, dated 2022).
Where two headings read alike, the source gives them in different places.

Key:
[1] = tested on: PRMT5-dependent Symmetric Di-methyl Arginine signal in HCT116 parental cells; assay: SYM11 In-Cell Western, HCT116 parental; type: cell-based; details: 4 days of treatment, SYM11/DRAQ5 ratio
Experimental: (§1) Control samples were analyzed in parallel.
Briefly, on Day 0, 2,000 HCT116 parental or HCT116 homozygous MTAP knockout cells were seeded in 96 well plates in McCoy's 5A supplemented with 10% fetal bovine serum and pen/strep and the cells were incubated overnight at 37° C. plus 5% CO2. The following day, cells were treated with DMSO vehicle control or a dose response of PRMT5 inhibitors, and incubated at 37° C. plus 5% CO^2 for four days.
After 4 days of treatment, the cells were fixed by adding 50 μl of 4% paraformaldehyde solution to each well and the cells were incubated for 20 min at room temperature. The paraformaldehyde solution was removed, 150 μl of ice-cold methanol was added and the plate was placed −20° C. for 10 minutes. The methanol was removed, 150 μl of Odyssey Blocking buffer+0.05% Tween20 was added and the plate was incubated at room temperature with shaking for one hour.
The primary SYM11 antibody solution was removed by aspiration and the wells were washed three consecutive times with phosphate buffered saline containing 0.1% Tween-20 (PBST).
The secondary antibody solution was removed by aspiration and the wells were washed three consecutive times with PB ST.
The SYM11 signal and the DRAQ5 signal were quantified using a Li-Cor Odyssey machine reading at […], respectively. The SYM11/DRAQ5 ratio was used to calculate the inhibition of Symmetric Dimethyl Arginine as percent of DMSO control.

[2] = tested on: HCT116 homozygous MTAP knockout cells; assay: Proliferation assay (CellTiter-Glo, 10 days of treatment), HCT116 MTAP knockout; type: cell-based; details: read-out: Proliferation HCT116MTAP_KO IC50
Method in brief: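 Cells (250/well) seeded in McCoy's 5A with 10% FBS, then treated the next day with a PRMT5 inhibitor dose response at 37 °C, 5% CO2. On day 6 they were split 1:10 into fresh medium with the same compound concentration. CellTiter-Glo viability was read on day 11 and IC50 taken after 10 days of treatment.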

PRMT5/MEP50 complex [3] = molecular target: T1, PRMT5/MEP50 complex (Homo sapiens (Human), UniProt O14744); assay: PRMT5:MEP50 HotSpot Assay (full-length histone H2A substrate, plus and minus MTA); type: biochemical; details: in the presence of 2 μM MTA
T1 sequence (O14744 2-637): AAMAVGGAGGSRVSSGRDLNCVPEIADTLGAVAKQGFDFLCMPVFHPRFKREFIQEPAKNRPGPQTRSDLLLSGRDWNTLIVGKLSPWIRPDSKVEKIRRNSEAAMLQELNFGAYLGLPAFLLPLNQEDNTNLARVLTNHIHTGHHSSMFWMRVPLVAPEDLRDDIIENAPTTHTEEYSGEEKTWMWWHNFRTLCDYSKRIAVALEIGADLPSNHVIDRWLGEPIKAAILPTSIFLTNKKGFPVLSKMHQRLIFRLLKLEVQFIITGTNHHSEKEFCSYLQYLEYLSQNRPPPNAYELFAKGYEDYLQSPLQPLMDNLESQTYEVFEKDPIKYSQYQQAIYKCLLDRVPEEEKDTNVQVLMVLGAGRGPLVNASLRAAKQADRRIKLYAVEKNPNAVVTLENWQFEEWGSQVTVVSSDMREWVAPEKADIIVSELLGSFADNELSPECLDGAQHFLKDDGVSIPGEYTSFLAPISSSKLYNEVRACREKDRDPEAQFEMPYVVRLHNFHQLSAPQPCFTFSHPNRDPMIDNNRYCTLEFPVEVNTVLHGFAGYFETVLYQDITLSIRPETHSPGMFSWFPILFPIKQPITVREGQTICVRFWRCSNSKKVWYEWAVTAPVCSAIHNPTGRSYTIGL
T1 sequence (Q9BQA1 2-342 partner): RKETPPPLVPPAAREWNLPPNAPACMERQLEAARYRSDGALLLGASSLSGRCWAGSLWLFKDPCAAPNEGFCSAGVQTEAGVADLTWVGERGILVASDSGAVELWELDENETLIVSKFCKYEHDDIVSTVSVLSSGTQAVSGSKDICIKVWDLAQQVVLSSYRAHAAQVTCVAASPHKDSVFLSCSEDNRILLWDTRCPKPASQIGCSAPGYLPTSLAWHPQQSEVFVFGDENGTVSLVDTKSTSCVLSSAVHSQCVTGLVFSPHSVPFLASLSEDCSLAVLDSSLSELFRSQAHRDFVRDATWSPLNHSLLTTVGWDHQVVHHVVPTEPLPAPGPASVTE
Method in brief: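 Radiometric filter-binding format using recombinant full-length histone H2A as substrate. After the reaction was stopped, mixtures went onto filter paper and tritiated H2A was quantified by scintillation counting.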

[4] = tested on: PRMT5-dependent Symmetric Di-methyl Arginine signal in HCT116 homozygous MTAP knockout cells; assay: SYM11 In-Cell Western, HCT116 MTAP knockout; type: cell-based; details: HCT116 homozygous MTAP knockout cells, 4 days of treatment, SYM11/DRAQ5 ratio, read-out: In-cell-Western (SYM11) HCT116 MTAP_KO IC50
HCT116 parental cells = assay: Proliferation assay (CellTiter-Glo, 10 days of treatment), HCT116 parental; type: cell-based
Experimental: as §1
Briefly, on Day 0, 250 HCT116 parental or HCT116 homozygous MTAP knockout cell were seeded in 96 well plates in McCoy's 5A supplemented with 10% fetal bovine serum and pen/strep and the cells were incubated overnight at 37° C. plus 5% CO2.
The following day, cells were treated with DMSO vehicle control or a dose response of PRMT5 inhibitors and incubated at 37 C plus 5% CO2 for five days. On Day 6, the cells were trypsinized and split 1:10 into new 96-well plates with fresh medium containing the same concentration of PRMT5 inhibitor and incubated for an additional 5 days at 37° C. plus 5% CO^2.
On Day 11, the viability of the cells was measured using a CTG assay kit (CellTiter-Glo; Promega cat.no G7573) in accordance with the manufacturer's instructions. The IC50 values for each compound after 10 days of treatment were calculated using GraphPad PRISM software.

PRMT5/MEP50 complex [5] = molecular target: T1, PRMT5/MEP50 complex; assay: PRMT5:MEP50 FlashPlate Assay (histone H4 peptide substrate, plus and minus MTA); type: biochemical
Experimental: The PRMT5 inhibitory activity of compounds of the present invention was determined using either a PRMT5:MEP50 FlashPlate Assay (Reaction Biology Corporation) or a PRMT5:MEP50 HotSpot Assay (Reaction Biology Corporation).
1. PRMT5:MEP50 FlashPlate Assay

IC50 [2] [nM] | IC50 (PRMT5/MEP50 complex [3]; read-out: IC50 + 2 μM MTA) [nM] | IC50 [4] [nM] | IC50 ([2]; Homo sapiens, HCT-116, 240 h) [nM] | IC50 (PRMT5/MEP50 complex [5]; IC50 + 2 μM MTA (nM), in the presence of 2 μM MTA) [nM] | IC50 (PRMT5/MEP50 complex [5]; in the absence of MTA, read-out: IC50) [nM] | IC50 ([4]; Homo sapiens, HCT-116, 96 h) [nM] | IC50 (PRMT5/MEP50 complex [3]; IC50 + 2 μM MTA) [nM] | SMILES | IC50 [1] [nM] | IC50 (HCT116 parental cells) [nM] | IC50 ([1]; Homo sapiens, HCT-116, 96 h) [nM] | IC50 (HCT116 parental cells; Homo sapiens, HCT-116, 240 h) [nM]
224 | 111 | 73 | – | – | – | – | – | Cn1ncc(-c2ccc3c(=O)[nH]nc(CN)c3c2)c1-c1c(F)cc2ccccc2c1C#N (single isomer, unassigned) [Example 16-2] | > 1000 | 5920 | – | –
– | – | – | 2030 | 4 | 204 | 945 | – | NCc1n[nH]c(=O)c2ccc(-c3cncc(Oc4cccc(Cl)c4)c3)cc12 [Example 4-67, 4-(aminomethyl)-6-(5-(3-chlorophenoxy)pyridin-3-yl)phthalazin-1(2H)-one] | – | – | 10000 | 7700
– | – | – | 615 | – | – | 25 | 2540 | Cc1cc(C#N)c(-c2c(-c3ccc4c(=O)[nH]nc(CN)c4c3)cnn2C)cc1Cl [Example 4-127, 2-(4-(4-(aminomethyl)-1-oxo-1,2-dihydrophthalazin-6-yl)-1-methyl-1H-pyrazol-5-yl)-4-chloro-5-methylbenzonitrile] | – | – | 5920 | > 10000
– | – | – | 427 | – | – | 39 | 1310 | Cn1ncc(-c2ccc3c(=O)[nH]nc(CN)c3c2)c1-c1cc2ccccc2cc1C#N [Example 4-128, 3-(4-(4-(aminomethyl)-1-oxo-1,2-dihydrophthalazin-6-yl)-1-methyl-1H-pyrazol-5-yl)-2-naphthonitrile] | – | – | 4020 | 9630
– | – | – | 1350 | – | – | 380 | 1650 | COc1cc(C#N)c(-c2c(-c3ccc4c(=O)[nH]nc(CN)c4c3)cnn2C)cc1OC [Example 4-129, 2-(4-(4-(aminomethyl)-1-oxo-1,2-dihydrophthalazin-6-yl)-1-methyl-1H-pyrazol-5-yl)-4,5-dimethoxybenzonitrile] | – | – | > 10000 | > 10000
– | – | – | 756 | – | – | 24 | 1950 | COc1cc(-c2c(-c3ccc4c(=O)[nH]nc(CN)c4c3)cnn2C)c(C#N)cc1Cl [Example 4-130, 2-(4-(4-(aminomethyl)-1-oxo-1,2-dihydrophthalazin-6-yl)-1-methyl-1H-pyrazol-5-yl)-5-chloro-4-methoxybenzonitrile] | – | – | > 10000 | > 10000
– | – | – | 847 | – | – | 43 | 1890 | Cc1cc(C#N)c(-c2c(-c3ccc4c(=O)[nH]nc(CN)c4c3)cnn2C)cc1C [Example 4-131, 2-(4-(4-(aminomethyl)-1-oxo-1,2-dihydrophthalazin-6-yl)-1-methyl-1H-pyrazol-5-yl)-4-5-dimethylbenzonitrile] | – | – | 3250 | > 10000
– | – | – | 595 | – | – | 24 | 2560 | Cc1cc(-c2c(-c3ccc4c(=O)[nH]nc(CN)c4c3)cnn2C)c(C#N)cc1Cl [Example 4-132, 2-(4-(4-(aminomethyl)-1-oxo-1,2-dihydrophthalazin-6-yl)-1-methyl-1H-pyrazol-5-yl)-5-chloro-4-methylbenzonitrile] | – | – | > 10000 | > 10000
– | – | – | 3760 | – | – | 31 | 641 | CC(C)c1ccc(-c2c(-c3ccc4c(=O)[nH]nc(CN)c4c3)cnn2C)cc1 [Example 4-135, 4-(aminomethyl)-6-(5-(4-isopropylphenyl)-1-methyl-1H-pyrazol-4-yl)phthalazin-1(2H)-one] | – | – | 3210 | 6610
– | – | – | 1490 | – | – | 254 | 1230 | Cn1ncc(-c2ccc3c(=O)[nH]nc(CN)c3c2)c1-c1ccc2ccccc2c1 [Example 4-139, 4-(aminomethyl)-6-(1-methyl-5-(naphthalen-2-yl)-1H-pyrazol-4-yl)phthalazin-1(2H)-one] | – | – | 5530 | 5070
– | – | – | 3870 | – | – | 47 | 1100 | Cn1ncc(-c2ccc3c(=O)[nH]nc(CN)c3c2)c1-c1ccc(Cl)c(Cl)c1 [Example 4-140, 4-(aminomethyl)-6-(5-(3,4-dichlorophenyl)-1-methyl-1H-pyrazol-4-yl)phthalazin-1(2H)-one] | – | – | > 10000 | 6810
– | – | – | 2090 | – | – | 88 | 794 | Cn1ncc(-c2ccc3c(=O)[nH]nc(CN)c3c2)c1-c1cc(Cl)cc(Cl)c1 [Example 4-141, 4-(aminomethyl)-6-(5-(3,5-dichlorophenyl)-1-methyl-1H-pyrazol-4-yl)phthalazin-1(2H)-one] | – | – | 4960 | 5500
– | – | – | 1780 | – | – | 49 | 881 | Cn1ncc(-c2ccc3c(=O)[nH]nc(CN)c3c2)c1-c1ccccc1F [Example 4-142, 4-(aminomethyl)-6-(5-(2-fluorophenyl)-1-methyl-1H-pyrazol-4-yl)phthalazin-1(2H)-one] | – | – | 6270 | 5740
– | – | – | 2160 | – | – | 190 | 873 | CCOc1ccc(-c2c(-c3ccc4c(=O)[nH]nc(CN)c4c3)cnn2C)cc1C#N [Example 4-145, 5-(4-(4-(aminomethyl)-1-oxo-1,2-dihydrophthalazin-6-yl)-1-methyl-1H-pyrazol-5-yl)-2-ethoxybenzonitrile] | – | – | 5490 | 3770
– | – | – | 261 | – | – | 40 | 569 | CCOc1cccc(-c2c(-c3ccc4c(=O)[nH]nc(CN)c4c3)cnn2C)c1C#N [Example 4-146, 2-(4-(4-(aminomethyl)-1-oxo-1,2-dihydrophthalazin-6-yl)-1-methyl-1H-pyrazol-5-yl)-6-ethoxybenzonitrile] | – | – | 6690 | > 10000
– | – | – | 38 | – | – | 3 | – | Cc1cc(-c2c(-c3ccc4c(=O)[nH]nc(CN)c4c3)cnn2C)c(C#N)c2ccccc12 [Example 12-10, 2-(4-(4-(aminomethyl)-1-oxo-1,2-dihydrophthalazin-6-yl)-1-methyl-1H-pyrazol-5-yl)-4-methyl-1-naphthonitrile] | – | – | > 1000 | 1330
– | – | – | 51 | – | – | 22 | – | CCc1cc(-c2cnn(C)c2-c2ccc3ccccc3c2C#N)cc2c(CN)n[nH]c(=O)c12 [Example 15-1, 2-[4-[4-(aminomethyl)-8-ethyl-1-oxo-2H-phthalazin-6-yl]-2-methyl-pyrazol-3-yl]naphthalene-1-carbonitrile] | – | – | > 1000 | 1560

SMILES | IC50 [2] [nM] | IC50 (PRMT5/MEP50 complex [3]; read-out: IC50 + 2 μM MTA) [nM] | IC50 [4] [nM] | IC50 ([2]; Homo sapiens, HCT-116, 240 h) [nM] | IC50 (PRMT5/MEP50 complex [5]; IC50 + 2 μM MTA (nM), in the presence of 2 μM MTA) [nM] | IC50 (PRMT5/MEP50 complex [5]; in the absence of MTA, read-out: IC50) [nM] | IC50 ([4]; Homo sapiens, HCT-116, 96 h) [nM] | IC50 (PRMT5/MEP50 complex [3]; IC50 + 2 μM MTA) [nM] | IC50 [1] [nM] | IC50 (HCT116 parental cells) [nM] | IC50 ([1]; Homo sapiens, HCT-116, 96 h) [nM] | IC50 (HCT116 parental cells; Homo sapiens, HCT-116, 240 h) [nM]
Cn1ncc(-c2ccc3c(=O)[nH]nc(CN)c3c2)c1-c1cccc(OC2CCC2)c1 [Example 4-137, 4-(aminomethyl)-6-(5-(3-cyclobutoxyphenyl)-1-methyl-1H-pyrazol-4-yl)phthalazin-1(2H)-one] | – | – | – | 3240 | – | – | 88 | 810 | – | – | 5180 | > 10000
